The values below come from PMC8725448 (Journal of Cannabis Research, 2022).

Values joined by “and” are separate entries in the source; they are usually repeats but may differ in a detail not shown here. Equal values may be shown once. Read-outs that look alike come from different tables or passages of the source.

Series [1] relates to hyperthermia-induced seizures in Scn1a^+/- mice. The settings on record: cited from earlier work.
The test system of another series is control HEK293 cells. The experiment in a line: GPR55 negative control pERK experiment. The settings on record: 10 μM; control HEK293 cells without GPR55. Format: cell-based, human. How it is done:
ERK phosphorylation (pERK) was detected using the AlphaScreen® SureFire® Phospho-ERK1/2 assay (Perkin Elmer; Waltham, USA) as previously described (Anderson et al. [2021b]). Briefly, the human embryonic kidney (HEK) 293 cells stably expressing human GPR55 in L-15 media were plated (110,000/well) into a Corning CellBIND (Corning Inc; Corning, USA) clear, flat-bottomed 96-well plate and incubated 20–24 h at 37°C in ambient CO2. Media was aspirated, 50 μL phenol red-free DMEM/F-12 was added to each well and incubated for 2–3 h at 37°C in a humidified 5% CO2 atmosphere. Compounds (10 μM in phenol red-free DMEM/F-12) were added and incubated for 20 min before media was aspirated and lysis buffer was added. Lysates (5 μL) were incubated with reaction mixture (7 μL) for 3.5 h at room temperature. A CLARIOstar plate reader (BMG Labtech; Offenburg, GER) was used to take fluorescence readings over 740 msec (excitation 680 nm, emission 520–620 nm). Fluorescence readings were normalized to those of 4 μM LPI, the endogenous GPR55 agonist. No effect of LPI (10 μM) is observed in control HEK293 cells (Supplemental Fig. 1). Final DMSO concentrations were ≤ 0.2%. […]
(LPI). Data are expressed as mean ± SEM normalized to 100 nM phorbol 12-myrisate 13-acetate (PMA), […]

Details of series [2]: method as in Anderson et al. 2019b. The settings on record: CBGA; ref Anderson et al. 2019b; cited from earlier work.
The target of a further series is T1, human GPR55 (Homo sapiens, UniProt Q9Y2T6).
T1 construct: expressed in transfected cells; host or cells: HEK293
T1 sequence (Q9Y2T6 whole entry): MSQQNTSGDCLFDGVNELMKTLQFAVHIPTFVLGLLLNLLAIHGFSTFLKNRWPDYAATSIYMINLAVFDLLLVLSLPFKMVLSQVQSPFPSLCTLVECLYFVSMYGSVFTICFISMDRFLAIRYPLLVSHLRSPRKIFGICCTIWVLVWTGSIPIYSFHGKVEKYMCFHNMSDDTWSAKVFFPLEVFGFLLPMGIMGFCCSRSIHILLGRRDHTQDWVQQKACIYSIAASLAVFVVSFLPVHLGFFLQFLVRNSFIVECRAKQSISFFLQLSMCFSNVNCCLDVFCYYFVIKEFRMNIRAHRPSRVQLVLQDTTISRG
On the set-up: method as in Anderson et al. 2021a, 2021b and unpublished data. The note with it: at therapeutically relevant concentrations; ref Anderson et al. 2021a, 2021b and unpublished data; cited from earlier work.

The target in another series is T2, CaV3.1 (Homo sapiens, UniProt O43497).
T2 construct: expressed in transfected cells; host or cells: Flp-In T-REx HEK (tetracycline-induced)
T2 sequence (O43497 whole entry): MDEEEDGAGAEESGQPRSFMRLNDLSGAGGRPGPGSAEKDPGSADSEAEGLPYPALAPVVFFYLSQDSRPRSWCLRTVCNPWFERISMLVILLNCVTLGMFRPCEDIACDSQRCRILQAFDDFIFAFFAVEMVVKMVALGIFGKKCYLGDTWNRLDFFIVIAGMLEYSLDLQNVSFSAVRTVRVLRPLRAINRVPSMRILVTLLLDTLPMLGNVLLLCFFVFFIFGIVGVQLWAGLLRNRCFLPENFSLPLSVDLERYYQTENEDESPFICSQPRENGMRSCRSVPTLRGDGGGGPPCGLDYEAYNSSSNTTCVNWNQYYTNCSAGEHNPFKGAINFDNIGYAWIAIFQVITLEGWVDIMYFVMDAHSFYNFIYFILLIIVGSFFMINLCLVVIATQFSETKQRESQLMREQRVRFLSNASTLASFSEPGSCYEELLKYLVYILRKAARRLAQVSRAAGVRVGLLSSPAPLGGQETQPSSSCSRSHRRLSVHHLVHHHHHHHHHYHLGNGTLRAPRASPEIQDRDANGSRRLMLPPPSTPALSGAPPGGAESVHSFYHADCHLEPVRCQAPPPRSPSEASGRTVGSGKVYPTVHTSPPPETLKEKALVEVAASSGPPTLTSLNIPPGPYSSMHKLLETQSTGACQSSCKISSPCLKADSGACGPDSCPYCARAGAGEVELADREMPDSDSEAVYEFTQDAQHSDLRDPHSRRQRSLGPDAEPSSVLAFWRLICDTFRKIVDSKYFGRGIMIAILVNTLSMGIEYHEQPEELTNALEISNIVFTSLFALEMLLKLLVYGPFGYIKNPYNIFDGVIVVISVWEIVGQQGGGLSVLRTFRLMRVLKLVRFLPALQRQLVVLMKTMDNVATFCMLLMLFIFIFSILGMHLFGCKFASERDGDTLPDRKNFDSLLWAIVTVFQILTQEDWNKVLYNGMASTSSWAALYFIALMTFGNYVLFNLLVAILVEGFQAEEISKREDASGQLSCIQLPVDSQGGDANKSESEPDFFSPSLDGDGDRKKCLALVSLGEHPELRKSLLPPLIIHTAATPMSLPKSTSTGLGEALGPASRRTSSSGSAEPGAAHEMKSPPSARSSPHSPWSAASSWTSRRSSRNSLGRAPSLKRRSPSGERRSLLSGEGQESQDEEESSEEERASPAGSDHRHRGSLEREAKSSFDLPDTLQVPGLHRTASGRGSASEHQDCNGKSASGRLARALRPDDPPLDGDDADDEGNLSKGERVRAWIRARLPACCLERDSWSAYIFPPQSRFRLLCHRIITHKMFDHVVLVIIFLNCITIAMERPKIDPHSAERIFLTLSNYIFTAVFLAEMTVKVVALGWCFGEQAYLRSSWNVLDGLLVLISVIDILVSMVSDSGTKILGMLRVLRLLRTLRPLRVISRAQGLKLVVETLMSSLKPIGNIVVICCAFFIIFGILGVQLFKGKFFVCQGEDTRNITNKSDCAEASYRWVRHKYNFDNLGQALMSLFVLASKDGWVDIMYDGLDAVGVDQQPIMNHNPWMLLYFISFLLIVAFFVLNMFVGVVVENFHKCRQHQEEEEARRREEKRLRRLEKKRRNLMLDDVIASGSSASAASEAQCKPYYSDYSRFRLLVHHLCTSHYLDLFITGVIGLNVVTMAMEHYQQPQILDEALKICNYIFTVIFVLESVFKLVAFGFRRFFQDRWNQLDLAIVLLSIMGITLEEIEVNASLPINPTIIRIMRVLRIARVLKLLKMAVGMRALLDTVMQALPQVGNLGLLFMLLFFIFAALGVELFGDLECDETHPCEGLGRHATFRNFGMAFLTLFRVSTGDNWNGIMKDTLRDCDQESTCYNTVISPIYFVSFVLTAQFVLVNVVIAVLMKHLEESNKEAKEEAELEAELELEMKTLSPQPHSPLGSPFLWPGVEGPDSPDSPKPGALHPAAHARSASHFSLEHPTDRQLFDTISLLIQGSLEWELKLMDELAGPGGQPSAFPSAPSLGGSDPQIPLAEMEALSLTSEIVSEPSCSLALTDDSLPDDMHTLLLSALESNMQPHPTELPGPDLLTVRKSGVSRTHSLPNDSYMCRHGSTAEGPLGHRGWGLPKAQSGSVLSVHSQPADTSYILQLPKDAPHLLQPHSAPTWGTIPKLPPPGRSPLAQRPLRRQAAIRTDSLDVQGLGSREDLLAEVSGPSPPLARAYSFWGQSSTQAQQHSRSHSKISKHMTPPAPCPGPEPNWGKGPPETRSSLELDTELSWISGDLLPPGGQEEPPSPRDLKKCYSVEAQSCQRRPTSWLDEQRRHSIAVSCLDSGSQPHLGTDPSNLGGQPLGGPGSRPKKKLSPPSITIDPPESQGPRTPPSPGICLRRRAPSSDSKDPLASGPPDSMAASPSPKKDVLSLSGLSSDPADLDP
Also on record: method as in Anderson et al. 2021a, 2021b and unpublished data. The settings on record: at therapeutically relevant concentrations; ref Anderson et al. 2021a, 2021b and unpublished data; cited from earlier work.

Series [3] deals with maximal electroshock (MES) seizure threshold. Also on record: method as in Anderson et al. 2021b. The settings on record: ref Anderson et al. 2021b; cited from earlier work.
[4] abbreviates: ref Anderson et al. 2019b, 2021a, 2021b.

Turning to `CCCc1cc(O)c(C/C=C(\C)CCC=C(C)C)c(O)c1C(=O)O` [CBGVA], the “efficacy against hyperthermia-induced seizures” value (shortened to “efficacy”) in series [1] (setting [4]) is given as “anticonvulsant”.

Take Lysophosphatidylinositol [LPI]: the “effect on ERK phosphorylation” value with control HEK293 cells is given as “No effect”.

Take `CCCCCc1cc(O)c(C/C=C(\C)CCC=C(C)C)c(O)c1` [CBG, cannabigerol]: in series [1] (setting [4]), the “efficacy” value is listed as “not effective”.

Take `C=C(C)[C@@H]1CCC(C)=C[C@H]1c1c(O)cc(CCC)c(C(=O)O)c1O` [CBDVA]: in series [1] (setting [4]), the “efficacy” value is given as “anticonvulsant”.

On to `CCCCCc1cc(O)c(C/C=C(\C)CCC=C(C)C)c(O)c1C(=O)O` [CBGA, Cannabigerolic acid], for which, in series [2], the “brain penetration / brain uptake” value was 2% and ~ 2%. In addition, the “efficacy” value is recorded as “effective” in series [1] (30 mg/kg, ref Anderson et al. 2021b) and “anticonvulsant properties” in series [1] (setting [4]). The “increase of threshold temperature” value in series [1] (100 mg/kg, ref Anderson et al. 2021b) was roughly 1 °C. For the same molecule, the “activity at GPR55” value at human GPR55 is on record as “inhibition”. Besides, at CaV3.1, the “activity at Cav3.1 channels” value is listed as “inhibition”. Moreover, in series [3], the “anticonvulsant properties in MES seizure threshold test” value is listed as “anticonvulsant properties”.

On to `C=C(C)[C@@H]1CCC(C)=C[C@H]1c1c(O)cc(CCCCC)cc1O` [CBD, cannabidiol], for which the “increase of temperature threshold” value in series [1] (100 mg/kg, ref Anderson et al. 2019a, 2020, Kaplan et al. 2017) was “approximately 0.5 °C”.

On to `C=C(C)[C@@H]1CCC(C)=C[C@H]1c1c(O)cc(CCCCC)c(C(=O)O)c1O` [CBDA, cannabidiolic acid], for which, in series [1] (setting [4]), the “efficacy” value is recorded as “anticonvulsant”.

In the case of `CCCCCc1cc2c(c(O)c1C(=O)O)C=CC(C)(CCC=C(C)C)O2` (centres unmarked) [CBCA], the “efficacy” value in series [1] (setting [4]) is recorded as “anticonvulsant”.
